From PMC4640659, “Antidepressant- and Anxiolytic-Like Effects of New Dual 5-HT1A and 5-HT7 Antagonists in Animal Models” (PLoS ONE, 2015)
pIC50, pKi: −log10 of the molar value. Entries after “also recorded” stand apart in the source; their conditions may differ. Where a name gives a salt, the structure may show the parent alone.

Columns and labels:
mice [1] = experiment: Forced swim test (FST) in mice; assay type: in vivo; conditions: for Effect on immobility time, given alone at sub-effective dose: i.p., fluoxetine 10, reboxetine 5, bupropion 2.5, HBK-14 1.25, HBK-15 0.625 mg/kg; for Decrease of immobility time: vs control
Method: The studies were carried out on mice according to the method described by Porsolt et al.. The animals were dropped individually into glass cylinders (height 25 cm, diameter 10 cm) containing 10 cm of water, maintained at 23–25°C. Mice were left in the cylinder for 6 min. […] The mouse was judged to be immobile when it remained floating passively in the water.

[2] = molecular target: T1, Serotonin transporter (SERT) (Rattus norvegicus, UniProt P31652); experiment: Radioligand binding, [3H]-citalopram, rat cerebral cortex; conditions: read-out: Serotonergic Ki SERT
T1 construct: Rat cerebral cortex was homogenized; from tissue; host or cells: rat cerebral cortex
T1 sequence (P31652 whole entry): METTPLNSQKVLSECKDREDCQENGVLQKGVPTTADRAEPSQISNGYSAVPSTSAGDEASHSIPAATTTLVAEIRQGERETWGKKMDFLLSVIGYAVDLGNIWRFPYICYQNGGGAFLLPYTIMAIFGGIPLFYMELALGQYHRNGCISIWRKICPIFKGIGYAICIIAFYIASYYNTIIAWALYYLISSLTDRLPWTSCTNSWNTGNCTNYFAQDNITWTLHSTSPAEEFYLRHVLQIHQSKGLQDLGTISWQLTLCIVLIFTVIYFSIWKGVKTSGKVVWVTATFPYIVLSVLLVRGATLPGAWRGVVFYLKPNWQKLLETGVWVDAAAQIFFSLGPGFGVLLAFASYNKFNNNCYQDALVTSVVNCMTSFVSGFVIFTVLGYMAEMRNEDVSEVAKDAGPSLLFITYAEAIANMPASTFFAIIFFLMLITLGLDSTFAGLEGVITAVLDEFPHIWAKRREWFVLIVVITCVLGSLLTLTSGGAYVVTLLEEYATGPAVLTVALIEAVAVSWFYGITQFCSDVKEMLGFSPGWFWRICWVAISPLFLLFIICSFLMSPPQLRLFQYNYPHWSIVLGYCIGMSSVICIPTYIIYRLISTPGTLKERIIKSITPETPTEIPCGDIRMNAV
Method: The supernatant was decanted and pellet was re-suspended in 30 volumes of buffer and centrifuged again. The resulting pellet was re-suspended in the same quantity of the buffer and centrifuged third time in the same conditions. […] Ki values were calculated.

human D2 receptor = molecular target: T2, human D2 receptor (Homo sapiens, UniProt P14416); experiment: Radioligand binding, [3H]-methylspiperon, CHO-K1 cell membranes; conditions: read-out: Dopaminergic Ki D2
T2 construct: expressed in transfected cells; host or cells: CHO-K1
T2 sequence (P14416 whole entry): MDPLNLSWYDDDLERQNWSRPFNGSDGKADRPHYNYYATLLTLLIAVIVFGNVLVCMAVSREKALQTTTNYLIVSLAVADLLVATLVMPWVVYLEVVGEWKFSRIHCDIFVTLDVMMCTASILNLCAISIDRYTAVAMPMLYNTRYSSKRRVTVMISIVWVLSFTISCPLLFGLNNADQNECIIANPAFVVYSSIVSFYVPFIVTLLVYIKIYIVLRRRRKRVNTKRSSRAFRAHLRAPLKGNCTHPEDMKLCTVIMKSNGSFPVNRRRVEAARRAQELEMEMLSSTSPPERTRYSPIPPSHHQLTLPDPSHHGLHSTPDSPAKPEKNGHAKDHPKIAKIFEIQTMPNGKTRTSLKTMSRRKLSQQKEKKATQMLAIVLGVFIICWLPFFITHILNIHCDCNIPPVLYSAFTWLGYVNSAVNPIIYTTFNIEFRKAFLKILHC
Method: Radioligand binding was performed using membranes from CHO-K1 cells stably transfected with the human D2 receptor. All assays were carried out in duplicates. […] (+)-butaclamol (10 μM) was used to define nonspecific binding. Microplate was covered with a sealing tape, mixed and incubated for 60 minutes at 37°C. The reaction was terminated by rapid filtration through GF/C filter mate pre-soaked with 0.3% polyethyleneimine for 30 minutes. Ten rapid washes with 200 μl 50 mM Tris buffer (4°C, pH 7.4) were performed using automated harvester system Harvester-96 MACH III FM (Tomtec). The filter mates were dried at 37°C in forced air fan incubator and then solid scintillator MeltiLex was melted on filter mates at 90°C for 5 minutes. Radioactivity was counted in MicroBeta2 scintillation counter (PerkinElmer) at approximately 30% efficiency. Ki values were calculated.

5-HT7 receptors = conditions: authors' previous studies; cited from earlier work
[3] = molecular target: T3, human serotonin 5-HT7 receptor (Homo sapiens, UniProt P34969); experiment: cAMP functional assay (LANCE Ultra TR-FRET), CHO-K1 cells; assay type: cell-based; conditions: for Kb / Antagonist activity weaker than reference antagonist SB-269970 / Emax: 5-HT7; for Kb: Cheng-Prusoff equation, read-out: Antagonist mode Kb; for Antagonist activity weaker than reference antagonist SB-269970: range over HBK-14 and HBK-15; for Emax: CHO-K1, mean of two independent experiments in duplicate, read-out: Agonist mode Emax
T3 construct: host or cells: CHO-K1 (with CRE-bla reporter)
T3 sequence (P34969 whole entry): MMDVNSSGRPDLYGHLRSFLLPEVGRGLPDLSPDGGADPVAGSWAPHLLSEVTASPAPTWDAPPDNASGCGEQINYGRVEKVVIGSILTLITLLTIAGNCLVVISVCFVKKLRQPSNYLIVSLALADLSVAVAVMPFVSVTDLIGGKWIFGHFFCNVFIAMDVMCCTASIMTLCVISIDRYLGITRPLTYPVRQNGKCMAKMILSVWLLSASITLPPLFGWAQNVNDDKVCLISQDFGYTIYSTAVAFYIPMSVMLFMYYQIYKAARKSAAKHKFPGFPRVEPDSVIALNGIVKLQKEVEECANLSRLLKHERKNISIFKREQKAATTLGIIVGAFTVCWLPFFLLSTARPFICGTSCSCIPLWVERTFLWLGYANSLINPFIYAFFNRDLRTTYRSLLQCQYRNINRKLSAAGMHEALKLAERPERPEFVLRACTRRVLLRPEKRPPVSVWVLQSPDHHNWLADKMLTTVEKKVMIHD
Method: CHO-K1 cells were transfected with a beta lactamase (bla) reporter gene under control of the cyclic AMP response element (CRE) (Life Technologies).
Thawed cells were resuspended in stimulation buffer (HBSS, 5 mM HEPES, 0.5 IBMX, and 0.1% BSA at pH 7.4) at 2x10^5 cells/ml for 5-HT7 receptor. The same volume (10 μl) of cell suspension was added to tested compounds for 5-HT7 receptor. Samples were loaded onto a white opaque half area 96-well microplate. […] The agonist and antagonist were added simultaneously. Cell stimulation was performed for 1h at room temperature. After incubation, cAMP measurements were performed with homogeneous TR-FRET immunoassay using the LANCE Ultra cAMP kit (PerkinElmer, USA). 10 μl of EucAMP Tracer Working Solution and 10 μl of ULight-anti-cAMP Tracer Working Solution were added, mixed, and incubated for 1 h. The TR-FRET signal was read on an EnVision microplate reader (PerkinElmer, USA).

5-HT1A receptors = conditions: authors' previous studies; cited from earlier work
mice [4] = experiment: Four-plate test in mice; assay type: in vivo
rats [5] = experiment: Elevated plus maze (EPM) test in rats; assay type: in vivo
Excerpt: Plus-maze apparatus (an automated device produced by Campden Instruments Ltd, UK) made of durable, high density, nonporous black plastic, elevated to a height of 50 cm, consisted of two open arms (50 cm x 10 cm) and two closed arms (50 cm x 10 cm, and 30 cm high walls), arranged so that the two arms of each type were opposite each other. Floor of the plus-maze was made of infrared transparent material what means that there are no visible sensors. The plus-maze was placed in a darkened room; only the centre of the apparatus was illuminated with low-density light (30 lux measured on the maze level). Plus-maze apparatus was connected to PC software by control chassis. Each rat was gently placed in the centre of the plus-maze, facing one of the closed arms, immediately after a 5-min adaptation period in a plastic black box (60 cm x 60 cm x 35 cm). During a 5-min test period, automated Motor Monitor System recorded the number of entries into the closed and open arms, the time spent in either type of the arms. After each trial the maze was wiped clean. Studied compounds and reference drug were administered (i.p.) 30 min before the test.

human 5-HT2A receptor = molecular target: T4, human 5-HT2A receptor (Homo sapiens, UniProt P28223); experiment: Radioligand binding, [3H]-ketanserin, CHO-K1 cell membranes; conditions: read-out: Serotonergic Ki 5-HT2A
T4 construct: expressed in transfected cells; host or cells: CHO-K1
T4 sequence (P28223 whole entry): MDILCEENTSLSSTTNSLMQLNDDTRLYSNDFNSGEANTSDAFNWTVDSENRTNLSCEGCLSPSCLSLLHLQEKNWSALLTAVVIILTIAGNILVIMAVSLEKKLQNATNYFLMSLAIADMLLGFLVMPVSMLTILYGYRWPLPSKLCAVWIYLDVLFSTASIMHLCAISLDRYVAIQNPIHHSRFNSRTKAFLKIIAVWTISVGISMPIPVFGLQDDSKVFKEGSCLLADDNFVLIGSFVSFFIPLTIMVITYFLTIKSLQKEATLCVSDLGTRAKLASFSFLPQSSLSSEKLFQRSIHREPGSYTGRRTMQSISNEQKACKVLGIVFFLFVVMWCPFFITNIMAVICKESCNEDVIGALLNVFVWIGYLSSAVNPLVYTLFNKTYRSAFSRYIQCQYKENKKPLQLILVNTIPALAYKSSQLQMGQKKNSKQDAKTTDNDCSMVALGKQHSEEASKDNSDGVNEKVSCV
Method: Radioligand binding was performed using membranes from CHO-K1 cells stably transfected with the human 5-HT2A receptor. Monolayer of CHO-K1 cells with stable expression of human receptor after reaching about 90% confluence was washed twice with PBS. After that the cells were scrapped and collected to centrifuge tubes. About 20 volumes of assay buffer was added to each tube and cells were homogenized (3 x 10 sec., 24 000 rpm; Ultra Turrax T25B homogenizator, IKA Labortechnik, USA). Tubes were centrifuged (20 min., 30 000 x g, about 4°C; 3K30 centrifuge, Sigma Laborzentrifugen, Germany). Supernatant was discarded and appropriate volume of assay buffer with 10% glycerol was added and homogenization was repeated. Membrane suspension was aliquoted into cryotubes, freezed in liquid nitrogen and stored until assay in -80°C. Membrane protein concentration was determined by BCA method. Immediately before assay frozen membranes were thawed quickly (about 35°C), mixed and homogenized (60 sec., 24,000 rpm) with appropriate volume of assay buffer to reach desired membrane protein concentration. All assays were carried out in duplicates. […] Microplate was covered with a sealing tape, mixed and incubated for 60 minutes at 27°C. […] Radioactivity was counted in MicroBeta2 scintillation counter (PerkinElmer) at approximately 30% efficiency. Inhibition constants (Ki) were calculated.

5-HT6 receptors = conditions: authors' former studies; cited from earlier work
α1-adrenoceptor = experiment: Radioligand binding, [3H]-prazosin, rat cerebral cortex; conditions: read-out: Adrenergic Ki α1
rats [6] = experiment: FST in rats; assay type: in vivo
Method: The experiment was carried out according to the method of Detke et al. [33]. On the first experimental day rats were placed individually in Plexiglas cylinders (40 cm height, 18 cm in diameter) containing 30 cm of water maintained at 25°C for 15 min. After that time the rats were placed for 30 min under a 60-W bulb to dry. 24 hours after the pre-test, the rats were placed again in the cylinders and the total duration of immobility (when a rat remained floating in the water without struggling and was making only those movements necessary to keep its head above water), swimming (when a rat was making active swimming motions, more than necessary to merely maintain its head above water, e.g. moving around in the cylinder) and climbing (when a rat was making active movements with its forepaws in and out of the water, usually directed against the walls) was recorded during the whole 5-min test period. Fresh water was used for each animal.

levels of serotonin = tested on: levels of serotonin; set-up: method as in PMID 9044239; conditions: mice, 3-day treatment 200 mg/kg; cited from earlier work
[7] = 2.5 mg/kg i.p. 30 min before test
[8] = 2.5 mg/kg i.p., pCPA interaction experiment (Fig 8A, 8B)
[9] = 5 mg/kg i.p. 30 min before test
[10] = i.p., ANOVA over the doses tested
[11] = 1.25 mg/kg i.p. 30 min before test
[12] = pCPA 200 mg/kg i.p. once daily for 3 days

CC(NC(C)(C)C)C(=O)c1cccc(Cl)c1 (stereo not shown) [bupropion, reference compound]
Effect on immobility time, given alone at sub-effective dose (mice [1]): did not affect

CCOc1ccccc1OC(c1ccccc1)C1CNCCO1 (stereo not shown) [reboxetine, reference compound]
Effect on immobility time, given alone at sub-effective dose (mice [1]): did not affect

COc1ccccc1N1CCN(CCOCCOc2c(C)cccc2C)CC1 [HBK-14, 1-{2-[2-(2,6-dimethlphenoxy)ethoxy]ethyl}-4-(2-methoxyphenyl)piperazynine hydrochloride]
pKi [2]: 5.46
pKi (human D2 receptor): 6.66
pKi (5-HT7 receptors): 6.81
pIC50 [3]: 7.11
Kb [3]: 24 nM
Antagonist activity weaker than reference antagonist SB-269970 [3]: 51-147 fold
Emax [3]: 19%
pKi (5-HT1A receptors): 7.39
Increase of the number of punished crossings (mice [4]; [7]): 68%
Increase of the number of punished crossings (mice [4]; [8]): 105%
Increase of the number of punished crossings (mice [4]; [9]): 87%
Increase of the percentage of open-arm entries (rats [5]; [7]): 90%
Increase of the percentage of time spent in the open arms (rats [5]; [7]): 591%
pKi (human 5-HT2A receptor): 6.58
pKi (5-HT6 receptors): 5.00
Decrease of immobility time (mice [1]; [7]): 30%
Reduction of immobility (mice [1]; 2.5 mg/kg i.p., pCPA interaction experiment (Fig 5A)): 25%
Decrease of immobility time (mice [1]; [9]): 31%
Effect on immobility time, given alone at sub-effective dose (mice [1]): none of tested compounds (HBK-14 1.25 mg/kg and HBK-15 0.625 mg/kg) administered alone affected the mouse immobility
pKi (α1-adrenoceptor): 7.64
Increase of swimming behaviour (rats [6]; 5 mg/kg i.p.): 185%
Decrease of immobility time (rats [6]; [9]): 38%
Effect on duration of climbing (rats [6]; [10]): no significant effect

CNCCC(Oc1ccc(C(F)(F)F)cc1)c1ccccc1 (stereo not shown) [fluoxetine, reference compound]
Effect on immobility time, given alone at sub-effective dose (mice [1]): did not affect

CN(C)CCCN1c2ccccc2CCc2ccccc21 [Imipramine, imipramine, reference compound]
Decrease of immobility time (mice [1]; [9]): 50%
Decrease of immobility time (rats [6]; 10 mg/kg i.p. 30 min before test): 51%
Effect on duration of swimming (rats [6]; [10]): no significant effect

CN(C)CCC[C@@]1(c2ccc(F)cc2)OCc2cc(C#N)ccc21 [Escitalopram, escitalopram, reference compound]
Decrease of immobility time (mice [1]; [7]): 42%
Increase of swimming (rats [6]; 30 mg/kg i.p.): 171%
Decrease of immobility time (rats [6]; 30 mg/kg i.p. 30 min before test): 48%
Effect on duration of climbing (rats [6]; [10]): no influence

COc1ccccc1N1CCN(CCOCCOc2c(C)cccc2Cl)CC1 [HBK-15, 2-[2-(2-chloro-6-methylphenoxy)ethoxy]ethyl-4-(2-methoxyphenyl)piperazynine dihydrochloride]
pKi [2]: 6.28
pKi (human D2 receptor): 7.27
pKi (5-HT7 receptors): 7.47
pIC50 [3]: 6.66
Kb [3]: 69 nM
Antagonist activity weaker than reference antagonist SB-269970 [3]: 51-147 fold
Emax [3]: 0%
pKi (5-HT1A receptors): > 9.00
Increase of the number of punished crossings (mice [4]; [7]): 52%
Increase of the number of punished crossings (mice [4]; 2.5 mg/kg i.p., WAY-100635 interaction experiment (Fig 8C, 8D), 2.5 mg/kg): 111%
Increase of the number of punished crossings (mice [4]; [8]): 109%
Increase of the number of punished crossings (mice [4]; [9]): 88%
Increase of the percentage of open-arm entries (rats [5]; [9]): 89%
Increase of the percentage of time spent in the open arms (rats [5]; [9]): 198%
pKi (human 5-HT2A receptor): 6.96
pKi (5-HT6 receptors): 5.02
Decrease of immobility time (mice [1]; [11]): 40%
Reduction of immobility (mice [1]; 1.25 mg/kg i.p., pCPA interaction experiment (Fig 5B)): 22%
Decrease of immobility time (mice [1]; [7]): 42%
Decrease of immobility time (mice [1]; [9]): 46%
Effect on immobility time, given alone at sub-effective dose (mice [1]): none of tested compounds (HBK-14 1.25 mg/kg and HBK-15 0.625 mg/kg) administered alone affected the mouse immobility
pKi (α1-adrenoceptor): 7.89
Increase of swimming time (rats [6]; 1.25 mg/kg i.p.): 166%
Decrease of immobility time (rats [6]; [11]): 30%
Increase of swimming time (rats [6]; 2.5 mg/kg i.p.): 191%
Decrease of immobility time (rats [6]; [7]): 38%
Effect on duration of climbing (rats [6]; [10]): no significant influence

COc1ccccc1N1CCN(CCN(C(=O)C2CCCCC2)c2ccccn2)CC1.Cl.Cl.Cl [WAY-100635, N-{2-[4-(2-methoxyphenyl)-1-piperazinyl]ethyl}-N-(2-pyridinyl)cyclohexanecarboxamide trihydrochloride, reference compound]
Effect on the number of punished crossings, given alone (mice [4]; WAY-100635 0.1 mg/kg s.c., 0.1 mg/kg): had no effect; also recorded: showed no effect
Effect on duration of immobility time, given alone (mice [1]; WAY-100635 0.1 mg/kg s.c.): had no effect

Cc1ccc(N(CC2=NCCN2)c2cccc(O)c2)cc1 [Phentolamine, phentolamine, reference compound]
pKi (α1-adrenoceptor): 8.05

CN1C(=O)CN=C(c2ccccc2)c2cc(Cl)ccc21 [Diazepam, diazepam, reference compound]
Increase of the number of punished crossings (mice [4]; [11]): 62%
Increase of the number of punished crossings (mice [4]; [7]): 73%
Increase of the percentage of open-arm entries (rats [5]; [7]): 131%
Increase of the percentage of time spent in the open arms (rats [5]; [7]): 672%

N[C@@H](Cc1ccc(Cl)cc1)C(=O)O (racemic) [pCPA, p-Chlorophenylalanine, reference compound]
Effect on the number of punished crossings, given alone (mice [4]; [12]): showed no effect; also recorded: had no effect
Effect on immobility, given alone (mice [1]; [12]): did not influence immobility time
Reduction of the levels of serotonin in cortex (levels of serotonin): around 30%
Reduction of the levels of serotonin in diencephalon (levels of serotonin): ~35%
Reduction of the levels of serotonin in midbrain (levels of serotonin): ~24%
Reduction of the levels of serotonin in pons & medulla (levels of serotonin): ~34%
